System: MV-4-11 cells
Assay: Gene expression microarray analysis (Affymetrix PrimeView) and GSEA
Assay type: cell-based, human
Design: RFU PODN (11730768_x_at) / Fold change /veh PODN (11730768_x_at) / RFU LINC00158 (11744669_a_at) / Fold change /veh LINC00158 (11744669_a_at) / RFU DUSP10 (11751237_a_at) / Fold change /veh DUSP10 (11751237_a_at) / RFU ID3 (11757404_x_at) / Fold change /veh ID3 (11757404_x_at) / RFU PLEKHG5 (11737974_s_at) / Fold change /veh PLEKHG5 (11737974_s_at) / RFU LRRC4B (11730491_at) / Fold change /veh LRRC4B (11730491_at) / RFU GIMAP4 (11747438_a_at) / Fold change /veh GIMAP4 (11747438_a_at) / RFU KRT8 (11758183_x_at) / Fold change /veh KRT8 (11758183_x_at) / RFU CNN1 (11734310_a_at) / Fold change /veh CNN1 (11734310_a_at) / RFU VPS37D (11726825_at) / Fold change /veh VPS37D (11726825_at) / RFU C10orf10 (11716522_x_at) / Fold change /veh C10orf10 (11716522_x_at) / RFU KIR2DL2 /// KIR2DL4 /// KIR2DL5A /// KIR2DL5B /// KIR2DS1 /// KIR2DS2 /// KIR2DS3 /// KIR2DS4 /// KIR3DL3 /// KIR3DL3 /// KIR3DS1 (11738374_at) / Fold change /veh KIR2DL2 /// KIR2DL4 /// KIR2DL5A /// KIR2DL5B /// KIR2DS1 /// KIR2DS2 /// KIR2DS3 /// KIR2DS4 /// KIR3DL3 /// KIR3DL3 /// KIR3DS1 (11738374_at) / RFU C1QL1 (11718748_at) / Fold change /veh C1QL1 (11718748_at) / RFU TMPRSS4 (11747572_a_at) / Fold change /veh TMPRSS4 (11747572_a_at) / RFU HAMP (11756126_x_at) / Fold change /veh HAMP (11756126_x_at) / RFU RNFT2 (11725882_a_at) / Fold change /veh RNFT2 (11725882_a_at) / RFU NR4A2 (11747474_a_at) / Fold change /veh NR4A2 (11747474_a_at) / RFU ABCC12 (11746883_a_at) / Fold change /veh ABCC12 (11746883_a_at) / RFU TMEM136 (11760407_x_at) / Fold change /veh TMEM136 (11760407_x_at) / RFU CLDN22 /// WWC2 (11732394_at) / Fold change /veh CLDN22 /// WWC2 (11732394_at) / RFU HLA-DPB1 (11760878_x_at) / Fold change /veh HLA-DPB1 (11760878_x_at) / RFU SPINT1 (11716480_a_at) / Fold change /veh SPINT1 (11716480_a_at) / RFU GAP43 (11754022_s_at) / Fold change /veh GAP43 (11754022_s_at) / RFU A4GNT (11735810_at) / Fold change /veh A4GNT (11735810_at) / RFU PRB3 (11715151_x_at) / Fold change /veh PRB3 (11715151_x_at) / RFU TUBB4B (11761932_at) / Fold change /veh TUBB4B (11761932_at) / RFU CAPN14 (11732068_a_at) / Fold change /veh CAPN14 (11732068_a_at) / RFU TMCC2 (11721928_a_at) / Fold change /veh TMCC2 (11721928_a_at) / RFU IRGQ (11745062_a_at) / Fold change /veh IRGQ (11745062_a_at) / RFU FAM174B (11720279_a_at) / Fold change /veh FAM174B (11720279_a_at) / RFU TMPRSS4 (11748680_a_at) / Fold change /veh TMPRSS4 (11748680_a_at) / RFU FAM212B (11763350_a_at) / Fold change /veh FAM212B (11763350_a_at) / RFU PLEKHG5 (11743358_a_at) / Fold change /veh PLEKHG5 (11743358_a_at) / RFU ZSCAN30 (11745921_a_at) / Fold change /veh ZSCAN30 (11745921_a_at) / RFU CMKLR1 (11741424_a_at) / Fold change /veh CMKLR1 (11741424_a_at) / RFU LOC101060620 /// MAPK8IP1 (11723275_at) / Fold change /veh LOC101060620 /// MAPK8IP1 (11723275_at) / RFU SPTSSB (11747773_x_at) / Fold change /veh SPTSSB (11747773_x_at) / RFU PRSS12 (11739890_at) / Fold change /veh PRSS12 (11739890_at) / RFU BIN1 (11741810_x_at) / Fold change /veh BIN1 (11741810_x_at) / RFU WNT11 (11732464_a_at) / Fold change /veh WNT11 (11732464_a_at) / RFU C10orf10 (11716521_a_at) / Fold change /veh C10orf10 (11716521_a_at) / RFU C5orf56 (11738089_at) / Fold change /veh C5orf56 (11738089_at) / RFU CYB561 (11721691_x_at) / Fold change /veh CYB561 (11721691_x_at) / RFU ANKRD19P (11752326_a_at) / Fold change /veh ANKRD19P (11752326_a_at) / RFU OR2T12 /// OR2T33 /// OR2T8 (11738714_s_at) / Fold change /veh OR2T12 /// OR2T33 /// OR2T8 (11738714_s_at) / RFU VCAN (11748164_a_at) / Fold change /veh VCAN (11748164_a_at) / RFU JSRP1 (11732532_at) / Fold change /veh JSRP1 (11732532_at) / RFU KRTAP10-11 (11738290_x_at) / Fold change /veh KRTAP10-11 (11738290_x_at) / RFU MYO3A (11730013_a_at) / Fold change /veh MYO3A (11730013_a_at) / RFU EBF3 (11725865_a_at) / Fold change /veh EBF3 (11725865_a_at) / RFU CAMK2N1 (11719241_x_at) / Fold change /veh CAMK2N1 (11719241_x_at) / RFU C5orf56 (11738088_a_at) / Fold change /veh C5orf56 (11738088_a_at) / RFU OLFML3 (11715873_a_at) / Fold change /veh OLFML3 (11715873_a_at) / RFU LOC100653217 /// NTM (11731650_a_at) / Fold change /veh LOC100653217 /// NTM (11731650_a_at) / RFU MAPK11 (11762145_a_at) / Fold change /veh MAPK11 (11762145_a_at) / RFU FIZ1 (11724087_x_at) / Fold change /veh FIZ1 (11724087_x_at) / RFU OASL (11726364_x_at) / Fold change /veh OASL (11726364_x_at) / RFU SOX15 (11748057_x_at) / Fold change /veh SOX15 (11748057_x_at) / RFU CD79A (11719716_a_at) / Fold change /veh CD79A (11719716_a_at) / RFU HIST1H1D (11736915_at) / Fold change /veh HIST1H1D (11736915_at) / RFU CASKIN2 (11723855_a_at) / Fold change /veh CASKIN2 (11723855_a_at) / RFU LOC730098 (11760151_x_at) / Fold change /veh LOC730098 (11760151_x_at) / RFU OR4N2 (11742367_at) / Fold change /veh OR4N2 (11742367_at) / RFU PRRT2 (11749266_a_at) / Fold change /veh PRRT2 (11749266_a_at) / RFU SNX32 (11753110_a_at) / Fold change /veh SNX32 (11753110_a_at) / RFU CDHR5 (11726645_a_at) / Fold change /veh CDHR5 (11726645_a_at) / RFU RCAN1 (11760418_a_at) / Fold change /veh RCAN1 (11760418_a_at) / RFU FAM167A (11723789_a_at) / Fold change /veh FAM167A (11723789_a_at) / RFU FAM26E (11764081_at) / Fold change /veh FAM26E (11764081_at) / RFU ISYNA1 (11749810_s_at) / Fold change /veh ISYNA1 (11749810_s_at) / RFU ACY1 (11761880_at) / Fold change /veh ACY1 (11761880_at) / RFU 11764098_at / Fold change /veh 11764098_at / RFU SAMD14 (11745864_x_at) / Fold change /veh SAMD14 (11745864_x_at) / RFU NPB (11741838_a_at) / Fold change /veh NPB (11741838_a_at) / RFU TMPRSS6 (11731388_a_at) / Fold change /veh TMPRSS6 (11731388_a_at) / RFU KRTAP10-2 (11738614_at) / Fold change /veh KRTAP10-2 (11738614_at) / RFU ARHGAP8 /// PRR5-ARHGAP8 (11727945_x_at) / Fold change /veh ARHGAP8 /// PRR5-ARHGAP8 (11727945_x_at) / RFU KRTAP5-7 /// NADSYN1 (11734609_at) / Fold change /veh KRTAP5-7 /// NADSYN1 (11734609_at) / RFU RASL12 (11751679_a_at) / Fold change /veh RASL12 (11751679_a_at) / RFU CDKN2B (11736163_a_at) / Fold change /veh CDKN2B (11736163_a_at) / RFU PRF1 (11729649_at) / Fold change /veh PRF1 (11729649_at) / RFU, ZNF638 /// ZNF638-IT1 / Fold change vs veh, ZNF638 /// ZNF638-IT1 / RFU, PANK3 / Fold change vs veh, PANK3 / RFU, SH3YL1 / Fold change vs veh, SH3YL1 / RFU, ZEB2 / Fold change vs veh, ZEB2 / RFU, NRIP1 / Fold change vs veh, NRIP1 / RFU, PTTG1IP / Fold change vs veh, PTTG1IP / RFU, CAPN2 / Fold change vs veh, CAPN2 / RFU, MED14 / Fold change vs veh, MED14 / RFU, SNORA58 / Fold change vs veh, SNORA58 / RFU, C1orf63 / Fold change vs veh, C1orf63 / RFU, LRRFIP1 / Fold change vs veh, LRRFIP1 / RFU, NDUFAF7 / Fold change vs veh, NDUFAF7 / RFU, SLC12A2 / Fold change vs veh, SLC12A2 / RFU, IBTK / Fold change vs veh, IBTK / RFU, ESF1 / Fold change vs veh, ESF1 / Fold change vs veh, TMEM50B / RFU, TAOK1 / Fold change vs veh, TAOK1 / RFU, ACBD3 / Fold change vs veh, ACBD3 / RFU, TMA16 / Fold change vs veh, TMA16 / RFU, RWDD3 / Fold change vs veh, RWDD3 / RFU, BCAT1 / Fold change vs veh, BCAT1 / RFU, EDEM3 / Fold change vs veh, EDEM3 / RFU, TMEM33 / Fold change vs veh, TMEM33 / RFU, WDR75 / Fold change vs veh, WDR75 / RFU, AHCTF1 / Fold change vs veh, AHCTF1 / RFU, TFRC / Fold change vs veh, TFRC / RFU, ZDHHC17 / Fold change vs veh, ZDHHC17 / RFU, NOM1 / Fold change vs veh, NOM1 / RFU, ARL8B / Fold change vs veh, ARL8B / RFU, ZBTB11 / Fold change vs veh, ZBTB11 / RFU, TAMM41 / Fold change vs veh, TAMM41 / RFU, KIAA1704 /// LOC100996395 / Fold change vs veh, KIAA1704 /// LOC100996395 / RFU, ING1 / Fold change vs veh, ING1 / RFU, TRMT61B / Fold change vs veh, TRMT61B / RFU, FUBP3 / Fold change vs veh, FUBP3 / RFU, TP53 / Fold change vs veh, TP53 / RFU, TNKS2 / Fold change vs veh, TNKS2 / RFU, ZFP14 / Fold change vs veh, ZFP14 / RFU, ACTR2 / Fold change vs veh, ACTR2 / RFU, PPP3R1 / Fold change vs veh, PPP3R1 / RFU, PIK3R1 / Fold change vs veh, PIK3R1 / RFU, HNRNPA1 / Fold change vs veh, HNRNPA1 / RFU, RNF170 / Fold change vs veh, RNF170 / RFU, ZNF28 / Fold change vs veh, ZNF28 / RFU, RNGTT / Fold change vs veh, RNGTT / RFU, OGT / Fold change vs veh, OGT / RFU, BRD1 / Fold change vs veh, BRD1 / RFU, MARS / Fold change vs veh, MARS / RFU, ZNF655 / Fold change vs veh, ZNF655 / RFU, FAHD1 / Fold change vs veh, FAHD1 / RFU, BDP1 / Fold change vs veh, BDP1 / RFU, LRRCC1 / Fold change vs veh, LRRCC1 / RFU, ARID1A / Fold change vs veh, ARID1A / RFU, ZNF146 / Fold change vs veh, ZNF146 / RFU, ZNF330 / Fold change vs veh, ZNF330 / RFU, GPN3 / Fold change vs veh, GPN3 / RFU, C9orf123 / Fold change vs veh, C9orf123 / RFU, N4BP2L2 / Fold change vs veh, N4BP2L2 / RFU, ARFIP1 / Fold change vs veh, ARFIP1 / RFU, FAM179B / Fold change vs veh, FAM179B / RFU, BCL10 / Fold change vs veh, BCL10 / RFU, UHRF1BP1L / Fold change vs veh, UHRF1BP1L / RFU, BET1 / Fold change vs veh, BET1 / RFU, CNOT2 / Fold change vs veh, CNOT2 / RFU, ZNF268 / Fold change vs veh, ZNF268 / Fold change vs veh, ZNF507 / RFU, DGCR2 / Fold change vs veh, DGCR2 / RFU, WDSUB1 / Fold change vs veh, WDSUB1 / Fold change vs veh, HSP90B1 /// MIR3652 / RFU, ADSS / Fold change vs veh, ADSS / RFU, GK / Fold change vs veh, GK / RFU, ZNF148 / Fold change vs veh, ZNF148 / RFU, TAF9 / Fold change vs veh, TAF9 / RFU, SLC1A5 / Fold change vs veh, SLC1A5 / RFU, SLMO2 / Fold change vs veh, SLMO2 / RFU, ABCC4 / Fold change vs veh, ABCC4 / RFU, LOC101060439 /// RAP1B / Fold change vs veh, LOC101060439 /// RAP1B / RFU, RFX7 / Fold change vs veh, RFX7 / RFU, GTPBP10 / Fold change vs veh, GTPBP10 / RFU, CNEP1R1 / Fold change vs veh, CNEP1R1 / RFU, BIVM-ERCC5 /// ERCC5 / Fold change vs veh, BIVM-ERCC5 /// ERCC5 / RFU, ILF3 / Fold change vs veh, ILF3 / RFU 11762660_at / Fold change /veh 11762660_at / RFU VCAN (11757783_s_at) / Fold change /veh VCAN (11757783_s_at) / RFU DDX43 (11728927_at) / Fold change /veh DDX43 (11728927_at) / RFU KRT8 (11758188_x_at) / Fold change /veh KRT8 (11758188_x_at) / RFU NKD1 (11759106_at) / Fold change /veh NKD1 (11759106_at) / RFU SRD5A1 (11742802_a_at) / Fold change /veh SRD5A1 (11742802_a_at) / RFU TPSAB1 /// TPSB2 (11721975_s_at) / Fold change /veh TPSAB1 /// TPSB2 (11721975_s_at) / RFU GSTM3 (11746129_a_at) / Fold change /veh GSTM3 (11746129_a_at) / RFU IL23R (11737362_x_at) / Fold change /veh IL23R (11737362_x_at) / RFU TMEM51 (11727254_a_at) / Fold change /veh TMEM51 (11727254_a_at) / RFU PIWIL2 (11732686_x_at) / Fold change /veh PIWIL2 (11732686_x_at) / RFU ORM1 (11744905_x_at) / Fold change /veh ORM1 (11744905_x_at) / RFU CCDC152 (11743942_at) / Fold change /veh CCDC152 (11743942_at) / RFU ECM1 (11717891_a_at) / Fold change /veh ECM1 (11717891_a_at) / RFU IL23R (11748794_a_at) / Fold change /veh IL23R (11748794_a_at) / RFU TNFAIP8L3 (11732012_x_at) / Fold change /veh TNFAIP8L3 (11732012_x_at) / RFU MBOAT4 (11741988_at) / Fold change /veh MBOAT4 (11741988_at) / RFU 11764193_at / Fold change /veh 11764193_at / RFU TMEM53 (11763286_at) / Fold change /veh TMEM53 (11763286_at) / RFU MAGEB2 (11727129_at) / Fold change /veh MAGEB2 (11727129_at) / RFU TMEM200A (11744735_a_at) / Fold change /veh TMEM200A (11744735_a_at) / RFU CCDC152 (11751479_a_at) / Fold change /veh CCDC152 (11751479_a_at) / RFU FAM211A (11726209_a_at) / Fold change /veh FAM211A (11726209_a_at) / RFU RGS16 (11746705_a_at) / Fold change /veh RGS16 (11746705_a_at) / RFU VCAN (11755009_s_at) / Fold change /veh VCAN (11755009_s_at) / RFU RHOB (11743442_s_at) / Fold change /veh RHOB (11743442_s_at) / RFU RGS16 (11720943_a_at) / Fold change /veh RGS16 (11720943_a_at) / RFU RGS16 (11720944_at) / Fold change /veh RGS16 (11720944_at) / RFU, VPS4B / Fold change vs veh, VPS4B / RFU, CREB1 / Fold change vs veh, CREB1 / RFU, DNAJC13 / Fold change vs veh, DNAJC13 / RFU, GNAQ / Fold change vs veh, GNAQ / RFU, CDK5R1 / Fold change vs veh, CDK5R1 / RFU, ZRANB3 / Fold change vs veh, ZRANB3 / RFU, CUL4A / Fold change vs veh, CUL4A / RFU, CCNY / Fold change vs veh, CCNY / RFU, UFL1 / Fold change vs veh, UFL1 / RFU, COG3 / Fold change vs veh, COG3 / RFU, DIAPH2 / Fold change vs veh, DIAPH2 / RFU, SKA2 / Fold change vs veh, SKA2 / RFU, AFF3 / Fold change vs veh, AFF3 / RFU, LMF1 / Fold change vs veh, LMF1 / RFU, IPO11 / Fold change vs veh, IPO11 / RFU, DFFB / Fold change vs veh, DFFB / RFU, FOXP1 / Fold change vs veh, FOXP1 / RFU, CARD8 / Fold change vs veh, CARD8 / RFU, STRN3 / Fold change vs veh, STRN3 / RFU, ADK / Fold change vs veh, ADK / RFU, RASSF2 / Fold change vs veh, RASSF2 / RFU, WIPF1 / Fold change vs veh, WIPF1 / RFU, LARP1B / Fold change vs veh, LARP1B / RFU, RASA1 / Fold change vs veh, RASA1 / RFU, RB1 / Fold change vs veh, RB1 / RFU, PPFIA1 / Fold change vs veh, PPFIA1 / RFU, MAT2A / Fold change vs veh, MAT2A / RFU, CCT5 / Fold change vs veh, CCT5 / RFU, WDR92 / Fold change vs veh, WDR92 / RFU, CUX1 / Fold change vs veh, CUX1 / RFU, TTC7A / Fold change vs veh, TTC7A / RFU, TMEM135 / Fold change vs veh, TMEM135 / RFU, DEPTOR / Fold change vs veh, DEPTOR / RFU, CPM / Fold change vs veh, CPM / RFU, DNAJB6 / Fold change vs veh, DNAJB6 / RFU, CACNA2D3 / Fold change vs veh, CACNA2D3 / RFU, DTX4 / Fold change vs veh, DTX4 / RFU, TFCP2 / Fold change vs veh, TFCP2 / RFU, GMCL1 /// GMCL1P1 / Fold change vs veh, GMCL1 /// GMCL1P1 / RFU, AEBP2 / Fold change vs veh, AEBP2 / RFU, SNHG1 /// SNORD22 /// SNORD25 /// SNORD26 /// SNORD27 /// SNORD28 /// SNORD29 /// SNORD31 / Fold change vs veh, SNHG1 /// SNORD22 /// SNORD25 /// SNORD26 /// SNORD27 /// SNORD28 /// SNORD29 /// SNORD31 / Fold change (Aza/veh), C12orf56 (ProbeSet 11735607_a_at) / Fold change (ACY-1035/veh), C12orf56 (ProbeSet 11735607_a_at) / Fold change (Aza/veh), FGFR1OP (ProbeSet 11751329_s_at) / Fold change (ACY-1035/veh), FGFR1OP (ProbeSet 11751329_s_at) / Fold change (Aza/veh), VPS36 (ProbeSet 11739960_a_at) / Fold change (ACY-1035/veh), VPS36 (ProbeSet 11739960_a_at) / RFU SYPL1 (11715823_x_at) / Fold change /veh SYPL1 (11715823_x_at) / RFU IGFBP7 (11715501_s_at) / Fold change /veh IGFBP7 (11715501_s_at) / RFU REEP3 (11722064_at) / Fold change /veh REEP3 (11722064_at) / RFU IGLL1 (11728026_x_at) / Fold change /veh IGLL1 (11728026_x_at): dose or concentration left out as unconfirmed
Details: MV-4-11 cells, 48 hours

Nc1ncn([C@@H]2O[C@H](CO)[C@@H](O)[C@H]2O)c(=O)n1 [azacitidine]
RFU SNX32 (11753110_a_at): 6.16 RFU
